Data on eight compounds can be found in patent US20230017045A1, “PYRIDINE AND PYRIMIDINE CARBOXYLATE HERBICIDES AND METHODS OF USE THEREOF” (Dow AgroSciences LLC, priority 2017, published 2023).

The assay has as its system test plant species. The experiment in a line: Post-emergent herbicidal activity test (greenhouse, foliar spray, visual growth reduction). It is filed as in vivo. As to conditions: post-emergence, 336 h, 140 g ai/ha, 14 days after application. The essentials: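 Visual scoring 14 d after treatment (0 = no injury, 100 = complete control) against nontreated and solvent-blank plants gave percent growth reduction. Foliar application used a track sprayer delivering 187 L/ha to seedlings at first or second true leaf stage, grown at 23–29 °C day, ~15 h photoperiod.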

Where [1] appears, read: ALOMY: blackgrass (Alopecurus myosuroides), read-out: Visual Growth Reduction (%) 14 Days After Application, ALOMY.
Setting [2] is: AMARE: redroot pigweed (Amaranthus retroflexus), read-out: Visual Growth Reduction (%) 14 Days After Application, AMARE.
Where [3] appears, read: AVEFA: wild oat (Avena fatua), read-out: Visual Growth Reduction (%) 14 Days After Application, AVEFA.
[4] abbreviates: CHEAL: lambsquarters (Chenopodium album), read-out: Visual Growth Reduction (%) 14 Days After Application, CHEAL.
Setting [5] is: CIRAR: canada thistle (Cirsium arvense), read-out: Visual Growth Reduction (%) 14 Days After Application, CIRAR.
Setting [6] is: DIGSA: crabgrass (Digitaria sanguinalis), read-out: Visual Growth Reduction (%) 14 Days After Application, DIGSA.
[7] abbreviates: ECHCG: barnyardgrass (Echinochloa crus-galli), read-out: Visual Growth Reduction (%) 14 Days After Application, ECHCG.
[8] abbreviates: IPOHE: ivy-leaf morning glory (Ipomoea hederacea), read-out: Visual Growth Reduction (%) 14 Days After Application, IPOHE.
The mark [9] stands for this setting: KCHSC: kochia (Bassia scoparia), read-out: Visual Growth Reduction (%) 14 Days After Application, KCHSC.
[10] abbreviates: ORYSA: rice (Oryza sativa), read-out: Visual Growth Reduction (%) 14 Days After Application, ORYSA.
Setting [11] is: SETFA: giant foxtail (Setaria faberi), read-out: Visual Growth Reduction (%) 14 Days After Application, SETFA.
Where [12] appears, read: SORVU: grain sorghum (Sorghum vulgare), read-out: Visual Growth Reduction (%) 14 Days After Application, SORVU.
The mark [13] stands for this setting: STEME: common chickweed (Stellaria media), read-out: Visual Growth Reduction (%) 14 Days After Application, STEME.
Where [14] appears, read: TRZAS: wheat, spring (Triticum aestivum), read-out: Visual Growth Reduction (%) 14 Days After Application, TRZAS.
Setting [15] is: CYPES: yellow nutsedge (Cyperus esculentus), read-out: Visual Growth Reduction (%) 14 Days After Application, CYPES.

Read-outs that look alike come from different tables or passages of the source.

As for `O=C(O)c1nc(-c2cc3c(cc2Cl)OCO3)ccc1Cl` [F148, 3-Chloro-6-(6-chlorobenzo[d][1,3]dioxol-5-yl)picolinic acid], the pest or weed control at 140 g/ha is, setting by setting: under setting [1], 0 to 29%; under setting [2], 75 to 84%; under setting [3], 0 to 29%; under setting [4], 75 to 84%; under setting [5], 0 to 29%; under setting [6], 0 to 29%. The pest or weed control at 140 g/ha lay in the range of 0 to 29% under setting [7]; 30 to 44% under setting [8]; 0 to 29% under setting [9]; 0 to 29% under setting [10]; 0 to 29% under setting [11]; 0 to 29% under setting [12]. Also, the pest or weed control at 140 g/ha reads like this: under setting [13], 0 to 29%; under setting [14], 0 to 29%.
Consider `COC(=O)c1nc(-c2ccc(Cl)c(N(C)C)c2)ccc1Cl` [F149, Methyl 3-chloro-6-(4-chloro-3-(dimethylamino)phenyl)picolinate], for which the pest or weed control at 140 g/ha was in the range of 0 to 29% under setting [1]; 75 to 84% under setting [2]; 0 to 29% under setting [3]; 95 to 100% under setting [4]; 60 to 74% under setting [5]; 0 to 29% under setting [15]. The pest or weed control at 140 g/ha under setting [6] was in the range of 0 to 29%; the pest or weed control at 140 g/ha under setting [7] lay in the range of 0 to 29%; the pest or weed control at 140 g/ha under setting [8] was 30 to 44%; the pest or weed control at 140 g/ha under setting [9] was 75 to 84%; the pest or weed control at 140 g/ha under setting [10] is 0 to 29%; the pest or weed control at 140 g/ha under setting [11] is 0 to 29%. Moreover, the pest or weed control at 140 g/ha is 0 to 29% under setting [12], 0 to 29% under setting [13] and 0 to 29% under setting [14].
Take `COC(=O)c1nc(-c2cc3c(cc2Cl)OCO3)c(F)cc1Cl` [F150, Methyl 3-chloro-6-(6-chlorobenzo[d] [1,3]oxol-5-yl)-5-fluoropicolinate]: the pest or weed control at 140 g/ha under setting [1] fell in the range of 0 to 29%; the pest or weed control at 140 g/ha under setting [2] was in the range of 75 to 84%; the pest or weed control at 140 g/ha under setting [3] was in the range of 0 to 29%; the pest or weed control at 140 g/ha under setting [4] is 75 to 84%; the pest or weed control at 140 g/ha under setting [5] lay within 85 to 94%; the pest or weed control at 140 g/ha under setting [15] lay within 0 to 29%. Also, the pest or weed control at 140 g/ha under setting [6] is 0 to 29%; the pest or weed control at 140 g/ha under setting [7] lay in the range of 0 to 29%; the pest or weed control at 140 g/ha under setting [8] was 85 to 94%; the pest or weed control at 140 g/ha under setting [9] was in the range of 45 to 59%; the pest or weed control at 140 g/ha under setting [10] was 0 to 29%; the pest or weed control at 140 g/ha under setting [11] was 30 to 44%. The pest or weed control at 140 g/ha is, setting by setting: under setting [12], 0 to 29%; under setting [13], 0 to 29%; under setting [14], 0 to 29%.
Consider `COC(=O)c1nc(-c2cc(Br)c(C(F)(F)F)cc2Cl)ccc1Cl` [F151, Methyl 6-(5-bromo-2-chloro-4-(trifluoromethyl)phenyl)-3-chloropicolinate], for which the pest or weed control at 140 g/ha was in the range of 0 to 29% under setting [1]; 95 to 100% under setting [2]; 0 to 29% under setting [3]; 95 to 100% under setting [4]; 45 to 59% under setting [5]; 0 to 29% under setting [15]. The pest or weed control at 140 g/ha lay within 0 to 29% under setting [6]; 0 to 29% under setting [7]; 95 to 100% under setting [8]; 45 to 59% under setting [9]; 0 to 29% under setting [10]; 0 to 29% under setting [11]. The pest or weed control at 140 g/ha fell in the range of 95 to 100% under setting [12], 0 to 29% under setting [13] and 0 to 29% under setting [14].
For `COC(=O)c1nc(-c2cc(Br)c(C(F)(F)F)cc2Cl)c(F)cc1Cl` [F152, Methyl 6-(5-bromo-2-chloro-4-(trifluoromethyl)phenyl)-3-chloro-5-fluoropicolinate], the pest or weed control at 140 g/ha under setting [1] fell in the range of 0 to 29%; the pest or weed control at 140 g/ha under setting [2] was 95 to 100%; the pest or weed control at 140 g/ha under setting [3] is 0 to 29%; the pest or weed control at 140 g/ha under setting [4] was in the range of 95 to 100%; the pest or weed control at 140 g/ha under setting [5] lay in the range of 45 to 59%; the pest or weed control at 140 g/ha under setting [15] is 0 to 29%. In addition, the pest or weed control at 140 g/ha reads like this: under setting [6], 60 to 74%; under setting [7], 0 to 29%; under setting [8], 95 to 100%; under setting [9], 85 to 94%; under setting [10], 0 to 29%; under setting [11], 0 to 29%. In addition, the pest or weed control at 140 g/ha runs as follows: under setting [12], 95 to 100%; under setting [13], 0 to 29%; under setting [14], 0 to 29%.
Turning to `COC(=O)c1nc(-c2cc3c(cc2Cl)OC(F)(F)O3)c(F)cc1Cl` [F153, Methyl 3-chloro-6-(6-chloro-2,2-difluorobenzo[d] [1,3]dioxol-5-yl)-5-fluoropicolinate], the pest or weed control at 140 g/ha by setting is: under setting [1], 60 to 74%; under setting [2], 95 to 100%; under setting [3], 60 to 74%; under setting [4], 85 to 94%; under setting [5], 85 to 94%; under setting [15], 0 to 29%. Further, the pest or weed control at 140 g/ha under setting [6] was 85 to 94%; the pest or weed control at 140 g/ha under setting [7] was 75 to 84%; the pest or weed control at 140 g/ha under setting [8] was 95 to 100%; the pest or weed control at 140 g/ha under setting [9] was 85 to 94%; the pest or weed control at 140 g/ha under setting [10] lay in the range of 0 to 29%; the pest or weed control at 140 g/ha under setting [11] was in the range of 85 to 94%. For the same compound, the pest or weed control at 140 g/ha under setting [12] was 95 to 100%, the pest or weed control at 140 g/ha under setting [13] fell in the range of 0 to 29% and the pest or weed control at 140 g/ha under setting [14] was 30 to 44%.
Regarding `COC(=O)c1nc(-c2cc3c(cc2Cl)OC(F)(F)O3)c(Cl)cc1Cl` [F154, Methyl 3,5-dichloro-6-(6-chloro-2,2-difluorobenzo[d] [1,3]dioxol-5-yl)picolinate], the pest or weed control at 140 g/ha is, setting by setting: under setting [1], 0 to 29%; under setting [2], 85 to 94%; under setting [3], 0 to 29%; under setting [4], 85 to 94%; under setting [5], 0 to 29%; under setting [15], 0 to 29%. In addition, the pest or weed control at 140 g/ha runs as follows: under setting [6], 60 to 74%; under setting [7], 0 to 29%; under setting [8], 95 to 100%; under setting [9], 0 to 29%; under setting [10], 0 to 29%; under setting [11], 45 to 59%. For the same compound, the pest or weed control at 140 g/ha was 60 to 74% under setting [12], 0 to 29% under setting [13] and 0 to 29% under setting [14].
In the case of `COC(=O)c1nc(-c2cc3c(cc2Cl)OCO3)c(Cl)cc1Cl` [F155, Methyl 3,5-dichloro-6-(6-chlorobenzo[d] [1,3]dioxol-5-yl)picolinate], the pest or weed control at 140 g/ha under setting [1] was in the range of 0 to 29%; the pest or weed control at 140 g/ha under setting [2] is 60 to 74%; the pest or weed control at 140 g/ha under setting [3] fell in the range of 0 to 29%; the pest or weed control at 140 g/ha under setting [4] fell in the range of 75 to 84%; the pest or weed control at 140 g/ha under setting [5] lay in the range of 0 to 29%; the pest or weed control at 140 g/ha under setting [15] was 0 to 29%. Moreover, the pest or weed control at 140 g/ha runs as follows: under setting [6], 0 to 29%; under setting [7], 0 to 29%; under setting [8], 0 to 29%; under setting [9], 0 to 29%; under setting [10], 0 to 29%; under setting [11], 0 to 29%. The pest or weed control at 140 g/ha lay in the range of 0 to 29% under setting [12], 0 to 29% under setting [13] and 0 to 29% under setting [14].
